In series [1] the test system is Schizophrenia Patients. Kind of series: Double-blind, placebo-controlled 6-week treatment of schizophrenia patients: clinical symptoms and cognition (SANS, PANSS, CGI, Wisconsin Card Sort Test). Conditions: for cognition, PANSS-cognitive subscale and Wisconsin Card Sort Test: 6 weeks of treatment; for WCST (Wisconsin Card Sort Test), change: initiation versus end of the 6-week study; for WCST (Wisconsin Card Sort Test), change / Cognitive symptoms (PANSS-cognitive subscale), change / Positive Symptoms (PANSS-positive subscale), change / reduction of the negative symptoms (on the SANS scale) / reduction of the positive symptoms (on the PANSS-positive subscale) / CGI, score after treatment: D-serine 30, D-alanine 60-100, N-methylglycine 30 mg/kg/day; for Negative Symptoms (SANS), change / Cognitive symptoms (PANSS-cognitive subscale), change / Positive Symptoms (PANSS-positive subscale), change / reduction of the negative symptoms (on the SANS scale) / reduction of the positive symptoms (on the PANSS-positive subscale): once a day by mouth for 6 weeks; for Negative Symptoms (SANS), change: D-serine 30 mg/kg/day, D-alanine 60-100 mg/kg/day, N-methylglycine 30 mg/kg/day, added to stable antipsychotic; for CGI, score after treatment: value after the arrow: after 6 weeks, once a day by mouth; for CGI, baseline score: value before the arrow: baseline of the treatment group. In kind it is in vivo, human. An excerpt:
(§1) This study employed 37 patients who were diagnosed as having schizophrenia. All patients fulfilled the DSM-IV diagnosis of schizophrenia (APA, 1994, Diagnostic and Statistical Manual of Mental Disorders, Fourth Edition, Washington, D.C.). All of the patients also fulfilled the criteria of primary deficit syndrome, with a SANS score of more than 40 (Kirkpatrick et al., 1989, Psychiatry Research 30:119-123; Andreasen, 1983, Scales for the Assessment of Negative Symptoms (SANS), Iowa City, Iowa). All of the patients were poorly responsive to treatment by other antipsychotic drugs, and had been kept on a stable dose of an antipsychotic drug for at least 3 months prior to enrollment in this study.
(§2) Several scales were used to assess the severity of the disorder in each patient. At the beginning of the study (i.e., the baseline), the PANSS, SANS, and […] were used. Each scale also was completed at the end of each 2-week period throughout the study. These assessments were performed by a psychiatrist who was blind to the treatment assignment. The Wisconsin Card Sort Test was used to provide a cognitive rating of the patients; in general, schizophrenic patients perform poorly on this test. The Wisconsin Card Sort Test was administered only at the initiation of the study and at the end of the 6-week study. To measure side effects, the Simpson-Angus Scale was used to measure extrapyramidal symptoms (EPS; Simpson et al., 1970, Acta Psychiatrica Scandinavia Suppl. 212:11-19). The Abnormal Involuntary Movement Scale (AIMS) was used to measure dyskinesia (Simpson et al., 1970, Acta Psychiatrica Scandinavia Suppl. 212:11-19). The Barnes Scale was used to measure akathesia (Barnes, 1989, Brit. J. Psychiatry 154:672-676). The side effects of D-serine, D-alanine, and N-methylglycine treatments were assessed biweekly according to the UKU side effects rating scale (Scandinavian Society of Psychopharmacology Committee of Clinical Investigation: The UKU side effect rating scale: scale for the registration of unwanted effects of psychotropics. Acta. Psychiatr. Scand. 1987; Suppl. 334:81-94).
(§3) Using double-blind conditions, the patients were randomly assigned to receive placebo (fruit juice), D-serine (30 mg/kg/day), D-alanine (60-100 mg/kg/day), or N-methylglycine (30 mg/kg/day) once a day by mouth for a period of 6 weeks. As indicated by the results shown in Table 1, treatment with D-serine, D-alanine, or N-methylglycine improved the schizophrenic symptoms and cognitive deficit of the patients. […] These reductions in the negative and positive symptoms represented clinically significant improvement.

Series [2] deals with Schizophrenia Patients. Conditions: human, in vivo; for AIMS (dyskinesia), score after treatment / Barnes Scale (akathesia), score after treatment / EPS (Simpson-Angus Scale), score after treatment: 6 weeks.
Excerpt: as §1, §2, §3

Marks after values point to notes of the source that are not given here.

For the compound `CNCC(=O)O` [N-methylglycine], in the series with Schizophrenia Patients [1], the “cognition, PANSS-cognitive subscale and Wisconsin Card Sort Test” value is on record as “improved cognition”; the “WCST (Wisconsin Card Sort Test), change” value is recorded as “+0.7* category”; the “Negative Symptoms (SANS), change” value was −20%*; the “Cognitive symptoms (PANSS-cognitive subscale), change” value (shortened to “Cognitive symptoms … change”) is given as −12%*. For the same compound, in the series on Schizophrenia Patients [1], the “Positive Symptoms (PANSS-positive subscale), change” value (“Positive Symptoms … change” for short) is recorded as −15%*; the “reduction of the negative symptoms (on the SANS scale)” value (“reduction of the negative symptoms” for short) is 20%; the “reduction of the positive symptoms (on the PANSS-positive subscale)” value (shortened to “reduction of the positive symptoms”) is listed as 15%; the “CGI, score after treatment” value amounted to 2.7. Moreover, in the series on Schizophrenia Patients [1], the “CGI, baseline score” value came to 4.2. Besides, in the series on Schizophrenia Patients [2], the “AIMS (dyskinesia), baseline score” value is listed as 0.4; the “Barnes Scale (akathesia), baseline score” value was found to be 0.5; the “EPS (Simpson-Angus Scale), baseline score” value (from here on “EPS … baseline score”) is 2.1-->2.1; the “side effects, UKU scale” value is on record as “no side effects were noted”. For the same compound, in the series with Schizophrenia Patients [2], the “significant side effects after treatment of schizophrenia patients” value (shortened to “significant side effects after treatment”) is listed as “no significant side effects were detected”; the “tardive dyskinesia, extrapyramidal and akathesia symptoms” value (from here on “tardive dyskinesia”) was “no newly emergent tardive dyskinesia or worsening of extrapyramidal or akathesia symptoms”; the “AIMS (dyskinesia), score after treatment” value turned out to be 0.3; the “Barnes Scale (akathesia), score after treatment” value (“Barnes Scale (akathesia), score” for short) amounted to 0.6. Further, the “EPS (Simpson-Angus Scale), score after treatment” value (“EPS (Simpson-Angus Scale), score” below) with Schizophrenia Patients [2] is reported as 2.1-->2.1.
With `C[C@@H](N)C(=O)O` [D-alanine], in the series on Schizophrenia Patients [1], the “cognition, PANSS-cognitive subscale and Wisconsin Card Sort Test” value was “improved cognition”; the “WCST (Wisconsin Card Sort Test), change” value is “+0.5* category”; the “Negative Symptoms (SANS), change” value is reported as −12%*; the “Cognitive symptoms … change” value is given as −11%*. Moreover, in the series on Schizophrenia Patients [1], the “Positive Symptoms … change” value is given as −11%*; the “reduction of the negative symptoms” value was found to be 11%; the “reduction of the positive symptoms” value came to 12%; the “CGI, score after treatment” value was found to be 2.8. Further, in the series with Schizophrenia Patients [1], the “CGI, baseline score” value turned out to be 3.9. Also, in the series with Schizophrenia Patients [2], the “AIMS (dyskinesia), baseline score” value is reported as 0.5; the “Barnes Scale (akathesia), baseline score” value is listed as 0.4; the “EPS … baseline score” value is reported as 3.1-->3.1; the “side effects, UKU scale” value is on record as “no side effects were noted”. In the series on Schizophrenia Patients [2], the “significant side effects after treatment” value was “no significant side effects were detected”; the “tardive dyskinesia” value was “no newly emergent tardive dyskinesia or worsening of extrapyramidal or akathesia symptoms”; the “AIMS (dyskinesia), score after treatment” value is listed as 0.1; the “Barnes Scale (akathesia), score” value is reported as 0.6. Also, the “EPS (Simpson-Angus Scale), score” value in the series on Schizophrenia Patients [2] was 3.1-->3.1.
Regarding `N[C@H](CO)C(=O)O` [D-serine], in the series on Schizophrenia Patients [1], the “cognition, PANSS-cognitive subscale and Wisconsin Card Sort Test” value is listed as “improved cognition”; the “WCST (Wisconsin Card Sort Test), change” value is on record as “+0.9 category”; the “Negative Symptoms (SANS), change” value is −21%*; the “Cognitive symptoms … change” value was −12%*. Besides, in the series on Schizophrenia Patients [1], the “Positive Symptoms … change” value is recorded as −17%*; the “reduction of the negative symptoms” value was found to be 21%; the “reduction of the positive symptoms” value was determined as 17%; the “CGI, score after treatment” value is 2.6. Moreover, the “CGI, baseline score” value in the series with Schizophrenia Patients [1] is on record as 4.8. In the series with Schizophrenia Patients [2], the “AIMS (dyskinesia), baseline score” value is reported as 0.3-->0.3; the “Barnes Scale (akathesia), baseline score” value was 0.4; the “EPS … baseline score” value is reported as 1.4; the “side effects, UKU scale” value was “no side effects were noted”. In the series with Schizophrenia Patients [2], the “significant side effects after treatment” value is listed as “no significant side effects were detected”; the “tardive dyskinesia” value is “no newly emergent tardive dyskinesia or worsening of extrapyramidal or akathesia symptoms”; the “AIMS (dyskinesia), score after treatment” value is 0.3-->0.3; the “Barnes Scale (akathesia), score” value amounted to 0.8. In addition, in the series on Schizophrenia Patients [2], the “EPS (Simpson-Angus Scale), score” value is 1.7.

Source of the values: US7704978B2, “Methods for treating neuropsychiatric disorders” (The General Hospital Corporation, priority 1998, dated 2010).
